Results: ChEMBL document CHEMBL1221220, “Transport and signaling via the amino acid binding site of the yeast Gap1 amino acid transceptor” (Nat Chem Biol, 2009)
Positions count from the first letter of the chain named. Activity calls are given as the source filed them. The rule behind the calls is not given here.

Legend:
[1] = test system: T1, General amino-acid permease GAP1 (Saccharomyces cerevisiae), P19145 [L383C]; experiment: Activation of yeast Gap1 L383C mutant-mediated amino acid uptake at 10 mM
T1 sequence (whole entry): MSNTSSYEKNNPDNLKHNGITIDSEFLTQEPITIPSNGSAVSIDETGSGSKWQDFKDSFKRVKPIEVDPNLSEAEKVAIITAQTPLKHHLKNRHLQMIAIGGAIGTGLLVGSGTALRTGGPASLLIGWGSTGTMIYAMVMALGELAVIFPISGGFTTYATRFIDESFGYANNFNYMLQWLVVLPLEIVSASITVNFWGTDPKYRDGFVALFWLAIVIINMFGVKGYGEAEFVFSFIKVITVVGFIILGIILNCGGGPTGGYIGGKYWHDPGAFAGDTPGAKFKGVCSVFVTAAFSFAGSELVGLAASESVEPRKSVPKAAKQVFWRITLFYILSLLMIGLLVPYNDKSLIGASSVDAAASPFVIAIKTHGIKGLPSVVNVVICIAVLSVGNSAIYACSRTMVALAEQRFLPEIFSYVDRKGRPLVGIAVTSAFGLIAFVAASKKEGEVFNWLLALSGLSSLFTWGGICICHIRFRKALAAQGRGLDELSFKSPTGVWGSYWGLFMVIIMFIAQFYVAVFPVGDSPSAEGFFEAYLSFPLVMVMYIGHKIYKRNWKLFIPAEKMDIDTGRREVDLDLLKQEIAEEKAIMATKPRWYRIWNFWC

[2] = test system: T2, General amino-acid permease GAP1 (Saccharomyces cerevisiae), P19145 [T400C]; experiment: Induction of yeast Gap1 T400C mutant-mediated trehalose activation at 10 mM
T2 sequence (whole entry): T1 sequence (whole entry) with C383L, T400C

Saccharomyces cerevisiae = experiment: Induction of yeast Gap1 L404 mutant-mediated trehalose activation at 10 mM
[3] = test system: General amino-acid permease GAP1 (Saccharomyces cerevisiae), P19145 [Y395C]; experiment: Inhibition of yeast Gap1 Y395C mutant-mediated amino acid uptake at 10 mM
[4] = test system: General amino-acid permease GAP1 (Saccharomyces cerevisiae), P19145 [V402C]; experiment: Inhibition of yeast Gap1 V402C mutant-mediated amino acid uptake at 10 mM
[5] = test system: T3, General amino-acid permease GAP1 (Saccharomyces cerevisiae), P19145 [A393C]; experiment: Induction of yeast Gap1 A393C mutant-mediated […] activation at 2 mM in presence of 10 mM MTSEA treated before compound addition
T3 sequence (whole entry): T1 sequence (whole entry) with C383L, A393C

[6] = test system: T4, General amino-acid permease GAP1 (Saccharomyces cerevisiae), P19145 [C397C]; experiment: Induction of yeast Gap1 C397C mutant-mediated […] activation at 2 mM in presence of 10 mM MTSEA treated before compound addition
T4 sequence (whole entry): T1 sequence (whole entry) with C383L

[7] = test system: General amino-acid permease GAP1 (Saccharomyces cerevisiae), P19145 [S388C]; experiment: Induction of yeast Gap1 S388C mutant-mediated trehalose activation at 2 mM in presence of 10 mM MTSEA treated before compound addition
[8] = test system: T4, General amino-acid permease GAP1 (Saccharomyces cerevisiae), P19145 [C397C]; experiment: Induction of yeast Gap1 C397C mutant-mediated amino acid uptake at 2 mM in presence of 10 mM MTSEA treated before compound addition

Chain of General amino-acid permease GAP1 (Saccharomyces cerevisiae), P19145 [Y395C] (P19145 whole entry Y395C): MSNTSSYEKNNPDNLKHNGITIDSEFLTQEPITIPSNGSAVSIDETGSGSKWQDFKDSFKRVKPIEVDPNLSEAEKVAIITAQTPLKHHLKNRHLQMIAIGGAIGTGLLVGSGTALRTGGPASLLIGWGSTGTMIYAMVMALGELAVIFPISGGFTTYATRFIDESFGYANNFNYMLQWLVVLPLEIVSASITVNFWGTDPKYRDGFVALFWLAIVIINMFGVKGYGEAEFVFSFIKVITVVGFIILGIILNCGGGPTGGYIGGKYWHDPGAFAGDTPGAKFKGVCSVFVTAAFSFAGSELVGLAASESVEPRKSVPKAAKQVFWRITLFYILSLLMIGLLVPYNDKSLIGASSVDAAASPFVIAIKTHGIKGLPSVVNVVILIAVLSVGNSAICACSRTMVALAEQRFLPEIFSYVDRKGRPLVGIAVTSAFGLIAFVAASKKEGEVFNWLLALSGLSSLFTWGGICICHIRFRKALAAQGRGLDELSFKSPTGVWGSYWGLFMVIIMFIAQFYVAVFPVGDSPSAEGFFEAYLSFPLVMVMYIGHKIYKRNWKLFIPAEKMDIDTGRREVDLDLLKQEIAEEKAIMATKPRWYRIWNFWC
Chain of General amino-acid permease GAP1 (Saccharomyces cerevisiae), P19145 [V402C] (P19145 whole entry V402C): as the sequence (P19145 whole entry Y395C) above, with C395Y, V402C counted along it
Chain of General amino-acid permease GAP1 (Saccharomyces cerevisiae), P19145 [S388C] (P19145 whole entry S388C): as the sequence (P19145 whole entry Y395C) above, with S388C, C395Y counted along it

Structure (SMILES): NC(=O)NCCC[C@H](N)C(=O)O
- Activity [1]: inactive
- Activity [2]: inactive
- Activity (Saccharomyces cerevisiae): inactive
- inhibition [3]: Active
- inhibition [4]: Active
- inhibition [5]: Active
- inhibition [6]: Active
- inhibition [7]: inactive
- Activity [8]: Active
